Two compounds from patent US20040086880A1, “Method of producing nucleic acid molecules with reduced secondary structure” (priority 1999, published 2004) can be followed below.

Experiment [1] deals with T1, Bst DNA polymerase (Geobacillus stearothermophilus, UniProt P52026).
T1 sequence (P52026 1-876): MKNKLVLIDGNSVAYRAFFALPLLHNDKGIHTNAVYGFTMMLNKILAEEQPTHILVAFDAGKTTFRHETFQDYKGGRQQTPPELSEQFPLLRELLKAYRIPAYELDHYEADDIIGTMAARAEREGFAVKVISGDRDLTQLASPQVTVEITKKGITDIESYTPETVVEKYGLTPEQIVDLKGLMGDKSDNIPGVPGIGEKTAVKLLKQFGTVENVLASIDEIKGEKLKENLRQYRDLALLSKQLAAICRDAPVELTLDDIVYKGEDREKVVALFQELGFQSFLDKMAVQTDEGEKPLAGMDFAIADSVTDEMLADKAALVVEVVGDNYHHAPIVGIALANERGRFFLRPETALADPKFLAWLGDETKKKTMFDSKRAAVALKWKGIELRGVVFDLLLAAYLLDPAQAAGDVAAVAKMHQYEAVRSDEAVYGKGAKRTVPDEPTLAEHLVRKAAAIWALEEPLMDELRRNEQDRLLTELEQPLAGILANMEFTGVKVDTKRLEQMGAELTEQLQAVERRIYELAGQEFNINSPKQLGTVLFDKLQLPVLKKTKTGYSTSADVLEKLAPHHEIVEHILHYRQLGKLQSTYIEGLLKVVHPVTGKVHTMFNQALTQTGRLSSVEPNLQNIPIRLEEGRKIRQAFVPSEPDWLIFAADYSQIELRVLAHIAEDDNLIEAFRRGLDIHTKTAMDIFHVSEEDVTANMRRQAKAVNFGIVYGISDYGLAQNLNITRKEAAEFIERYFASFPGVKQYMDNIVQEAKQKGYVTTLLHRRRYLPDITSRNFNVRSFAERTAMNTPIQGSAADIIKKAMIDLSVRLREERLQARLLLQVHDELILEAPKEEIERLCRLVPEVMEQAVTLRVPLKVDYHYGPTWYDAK
Nature of the experiment: Synthesis of single-stranded 56-mer by primer extension and lambda exonuclease digestion. The class given is biochemical. As to conditions: substituted for dATP and dTTP; for full-length 56-mer product: 65° C., 30 minutes. The method, then: Unstructured single-stranded UNA was generated by incorporating 2-aminoadenosine and 2-thiothymidine nucleotides using a 14-mer primer and 56-mer template (5′-phosphorylated) and Bst DNA polymerase followed by digestion of the DNA template with lambda exonuclease (FIG. 6). Ten microliter extension reactions were performed in 0.65 ml pre-siliconized microfuge tubes containing the following components: 20 mM Tris-Cl (pH 8.8 @ 25° C.), 10 mM KCl, 10 mM (NH4)2SO4, 2 mM MgSO4, 0.1% Triton-X100, 1.0 microM primer/template, 500 microM dGTP, 500 microM dATP (or 2-amino-2′-deoxyadenosine-5′-triphosphate), 500 microM dTTP (or 2-thiothymidine-5′-triphosphate), 200 microM ^32P--CTP and 0.8 units/microL Bst DNA polymerase. The reactions were incubated at 65° C. for 30 minutes, quenched with 5 mM EDTA, ethanol precipitated, dried and resuspended in 10 microL of 10 mM Tris-Cl pH 8.0. The 56-mer template was digested by incubating the resuspended samples with 10 units of lambda exonuclease (Strandase Kit™, (Novagen; Madison, Wis.)) for 30 minutes at 37° C. The reactions were quenched with 5 mM EDTA, ethanol precipitated, dried and resuspended in 10 microL of 10 mM Tris-Cl pH 8.0. The samples were then electrophoresed on 10% denaturing (7M urea) polyacrylamide gels and visualized using phosphorimaging methods.

Experiment [2] has as its target T2, SuperScript II MMLV reverse transcriptase (Moloney murine leukemia virus, UniProt P03355, D1183G/D1242N/E1221Q).
T2 construct: 200 units of SuperScript II MMLV reverse transcriptase (InVitrogen); purchased InVitrogen
Nature of the experiment: Synthesis of fluorescently labeled cUNA from pBp-1 T7-RNA template with dCTP-Cy5. It is filed as biochemical. The following applies: substituted for dATP and TTP; one hour. As for the experimental part:
The ability to generate fluorescently labeled cUNAs was tested using the pBp-1 T7-RNA template and dCTP-Cy5 fluorescently labeled nucleotide analogue (Perkin-Elmer/NEN). The reverse transcriptase reactions (10.0 uL) were performed in 0.65 mL pre-siliconized microfuge tubes containing the following components: 50 mM Tris-Cl (pH 8.3), 75 mM KCl, 3.0 mM MgCl2, 4.5 mM DTT, 500 uM dGTP (or dITP), 500 uM dATP (or 2-amino-2′-deoxyadenosine-5′-triphosphate), 500 uM TTP (or 2-thiothymidine-5′-triphosphate), the indicated amounts of dCTP and dCTP-Cy5, 40 nM pBp-1 RNA template, 1.0 uM T16N2 primer, 1.0 unit of RNase Out (In Vitrogen), and 100 units of SuperScript II MMLV reverse transcriptase (In Vitrogen). The buffer components, RNA template, and primer were annealed by heating to 75° C. for 4 minutes and quickly cooled to room temperature. The dNTPs and RNase inhibitor were then added and the reactions were initiated by the addition of the reverse transcriptase and incubated at 42° C. At one and three hours, 5.0 uL aliquots were removed, mixed with 0.07 ug of RNase A, and incubated at room temperature for 30 minutes. The ribonucleased reaction mixtures were quenched with EDTA and 8 M urea and separated by electrophoresis on 5% polyacrylamide gels (19:1) containing 1×TBE and 9M urea. The fluorescently-labeled products were visualized using a phosphorimager.

In the case of `Cc1cn([C@H]2C[C@H](O)[C@@H](COP(=O)(O)OP(=O)(O)OP(=O)(O)O)O2)c(=S)[nH]c1=O` [2-thiothymidine-5′-triphosphate], in experiment [1], the premature termination products result is on record as “little if any” and the “full-length 56-mer product” value is on record as “full-length 56-mer product is generated”. Also, the full-length fluorescently-labeled product result in experiment [2] is listed as “full-length fluorescently-labeled product is generated”.

As to `Nc1nc(N)c2ncn([C@H]3C[C@H](O)[C@@H](COP(=O)(O)OP(=O)(O)OP(=O)(O)O)O3)c2n1` [2-amino-2′-deoxyadenosine-5′-triphosphate], in experiment [1], the premature termination products result was “little if any” and the “full-length 56-mer product” value is “full-length 56-mer product is generated”. Also, in experiment [2], the full-length fluorescently-labeled product result is given as “full-length fluorescently-labeled product is generated”.
